Laboratory results reported in publication PMC10380083, “Synthesis of Prostate-Specific Membrane Antigen-Targeted Bimodal Conjugates of Cytotoxic Agents and Antiandrogens and Their Comparative Assessment with Monoconjugates” (International Journal of Molecular Sciences, 2023).
Read-outs that look alike come from different tables or passages of the source. *1 amine or outer side, *2 acyl side, *3 side chain or, on linkers, in order; H or OH if unused. Where a SMILES comes first, the peptide text is derived from it. [ ]: non-standard residue; d: D form. The star is where a group is joined. GluureaLys(ε-3-ClBenzyl) = O=C(O)CC[C@H](NC(=O)N[C@@H](CCCCN(Cc1cccc(Cl)c1)*)C(=O)O)C(=O)O; X4 = C[C@]12CC[C@H](OC(=O)CCC(=O)*)CC1=CC[C@@H]1[C@@H]2CC[C@]2(C)C(c3cccnc3)=CC[C@@H]12; Dolaproine = CO[C@@H]([C@@H]1CCCN1)[C@@H](C)C(=O)O; Dil = CC[C@H](C)[C@H](NC)[C@@H](CC(=O)O)OC; X2 = O=C(CCCc1cn(CCCN[*:1])nn1)[*:2]; PABC = O=C(OCc1ccc(N[*:1])cc1)[*:2]; X1 = C[C@@H](N*)[C@@H](O)c1ccccc1; Cit = NC(=O)NCCC[C@H](N)C(=O)O; Suc = O=C(CCC(=O)[*:2])[*:1]; NMeV = CN[C@H](C(=O)O)C(C)C; Ahx = NCCCCCC(=O)O

Columns and labels:
[1] = Body weight, general condition and mortality in the antitumor efficacy study; conditions: i.v. 132.3 nM/kg x3
Description: Animal body weight data are presented in Table S2 in the electronic supplementary materials.
To study the antitumor efficacy, conjugates were administered intravenously at a dose of 132.3 nM/kg to tumor-bearing mice three times at five-day intervals; administration was started 7−8 days after cell inoculation, and the tumor size was 70−90 mm^3. As a control substance, 0.9% sodium chloride solution was used. Experimental groups included five animals each. […] The mixture was dissolved in DMSO (5% of final solution) and diluted with hemodesum (30% low-molecular-weight polyvinylpyrrolidone (Mw = 8000 ± 200) saline infusion solution). The presence of tumors and their sizes, as well as the body weights of the mice, were recorded every five days during the observation of the animals. The antitumor effect was assessed by comparing the tumor volumes in the experimental and control groups as well as the amount of tumor growth inhibition (TGI, %). […]
(§1) 3.2.1. In vivo evaluation of antitumor efficacy […]
(§2) intravenously at a dose of 132.3 nM/kg to tumor-bearing mice three times at 5-day intervals, the administration was started 7-8 days after cell inoculation to animals, tumor size was 70-90 mm3.
(§3) A 0.9% sodium chloride solution was used as a control substance. The experimental groups […]
(§4) The presence of tumor masses and their size, as well as the body weight of the mice, were recorded every 5 days during observation. In accordance with humane principles, animals were euthanized by placing the mice in a CO2 inhalation chamber (ZOONLAB GmbH, Germany).
Conjugate Method of injection Dose Number of animals 22Rv1 PC-3 […]
3.4. In vivo Efficacy Evaluation
Days after tumor implantation / mass± error, g
Conjugate 7 day 12 day 17 day […]
injection) injection) injection)
Human prostate carcinoma 22Rv1
Human prostate adenocarcinoma PC-3
Table S3. Tumor growth dynamics of 22Rv1 and PC-3 in mice with intravenous triple injection of […]
ate Days after tumor implantation / V±m, mm3

[2] = system: PC-3 prostate adenocarcinoma xenograft; conditions: PC-3 xenograft; for tumor volume V±m: i.v. triple injection, single dose 132.3 nM/kg; for Tumor growth inhibition: i.v. 132.3 nM/kg three times; for TGI, did not exceed: i.v. 132.3 nM/kg three times at five-day intervals, male Balb/c nude mice
Description: (§5) We carried out in vivo studies of the efficacy of the obtained bimodal conjugates. […] Also, conjugate I (Figure 5) was used as a reference compound. An isotonic (0.9%) sodium chloride solution was used as a negative control. Studies were carried out in xenograft models of 22Rv1 human prostate carcinoma and PC-3 prostate adenocarcinoma in immunodeficient Balb/c nude mice (male).
(§6) Two cell lines were used: human prostate carcinoma 22Rv1 and prostate adenocarcinoma PC-3 (ATCC collection). Cells were cultured in 75 cm^2 vials (Costar, Washington, DC, USA) in RPMI-1640 medium (PanEco, Russia) with the addition of 2 mM L-glutamine (PanEco, Russia) and 10% fetal calf serum (HyClone, Logan, UT, USA) under standard conditions of cultivation (in a humidified atmosphere at 37 °C and 5% CO2). Cells of 6–10 passages were used to inoculate the animals. Cell suspension was prepared with a concentration of 5 × 10^6 cells in 0.05 mL of the 22Rv1 medium and in 0.1 mL of the PC-3 medium. 22Rv1 cells were inoculated into animals in Matrigel (BD Matrigel Basement Membrane Matrix, BD Biosciences, San Jose, CA, USA). Manipulations with Matrigel were performed on a refrigerated plate using precooled materials, tubes and instrumentation. For animal administration, 50 μL of the cell suspension (5 × 10^6 cells) was transferred to a chilled tube containing 50 μL of Matrigel; after mixing, the cellular material (final volume of 100 μL) was injected subcutaneously into the groin area of the animal. To obtain subcutaneous xenograft PC-3, a 5 × 10^6 suspension of tumor cells was inoculated subcutaneously into the inguinal cavity of male mice in a volume of 0.1 mL.
(§7) To study the antitumor efficacy, conjugates were administered intravenously at a dose of 132.3 nM/kg to tumor-bearing mice three times at five-day intervals; administration was started 7−8 days after cell inoculation, and the tumor size was 70−90 mm^3. As a control substance, 0.9% sodium chloride solution was used. Experimental groups included five animals each. […] The mixture was dissolved in DMSO (5% of final solution) and diluted with hemodesum (30% low-molecular-weight polyvinylpyrrolidone (Mw = 8000 ± 200) saline infusion solution). The presence of tumors and their sizes, as well as the body weights of the mice, were recorded every five days during the observation of the animals. The antitumor effect was assessed by comparing the tumor volumes in the experimental and control groups as well as the amount of tumor growth inhibition (TGI, %).
(§8) Tumor volume was calculated using Formula (1):V = d1 × d2 × d3 × 0.52(1) where d1, d2 and d3 are the three mutually perpendicular dimensions of the tumor. […]
as §1, §2, §3, §4

[3] = system: 22Rv1 human prostate carcinoma xenograft; conditions: 22Rv1 xenograft; for tumor volume V±m: i.v. triple injection, single dose 132.3 nM/kg; for Tumor growth inhibition: i.v. 132.3 nM/kg three times
Description: as §5, §6, §7, §8, §1, §2, §3, §4

[4] = 22Rv1 xenograft mice, 7 day after tumor implantation (1st injection)
[5] = 22Rv1 xenograft mice, 12 day after tumor implantation (2nd injection)
[6] = 22Rv1 xenograft mice, 17 day after tumor implantation (3rd injection)
[7] = 22Rv1 xenograft mice, 22 day after tumor implantation
[8] = 22Rv1 xenograft mice, 27 day after tumor implantation
[9] = 22Rv1 xenograft mice, 33 day after tumor implantation
[10] = 22Rv1 xenograft mice, 37 day after tumor implantation
[11] = PC-3 xenograft mice, 7 day after tumor implantation (1st injection)
[12] = PC-3 xenograft mice, 12 day after tumor implantation (2nd injection)
[13] = PC-3 xenograft mice, 17 day after tumor implantation (3rd injection)
[14] = PC-3 xenograft mice, 22 day after tumor implantation
[15] = PC-3 xenograft mice, 27 day after tumor implantation
[16] = PC-3 xenograft mice, 33 day after tumor implantation
[17] = PC-3 xenograft mice, 37 day after tumor implantation
[18] = 7 day after tumor implantation (1st injection)
[19] = 12 day after tumor implantation (2nd injection)
[20] = 22 day after tumor implantation
[21] = 27 day after tumor implantation
[22] = 33 day after tumor implantation
[23] = 37 day after tumor implantation
[24] = days after the start of treatment: 1
[25] = days after the start of treatment: 5
[26] = days after the start of treatment: 10
[27] = days after the start of treatment: 16
[28] = days after the start of treatment: 20
[29] = 17 day after tumor implantation (3rd injection)

CC[C@H](C)[C@@H]([C@@H](CC(=O)N1CCC[C@H]1[C@H](OC)[C@@H](C)C(=O)N[C@H](C)[C@@H](O)c1ccccc1)OC)N(C)C(=O)[C@@H](NC(=O)[C@H](C(C)C)N(C)C(=O)OCc1ccc(NC(=O)[C@H](CCCNC(N)=O)NC(=O)[C@@H](NC(=O)CCCc2cn(CCCNC(=O)[C@H](CCCCNC(=O)CCC(=O)O[C@H]3CC[C@@]4(C)C(=CC[C@@H]5[C@@H]4CC[C@]4(C)C(c6cccnc6)=CC[C@@H]54)C3)NC(=O)[C@H](Cc3ccc(O)cc3)NC(=O)[C@H](Cc3ccccc3)NC(=O)CCC(=O)NCCCCCC(=O)N(CCCC[C@H](NC(=O)N[C@@H](CCC(=O)O)C(=O)O)C(=O)O)Cc3cccc(Cl)c3)nn2)C(C)C)cc1)C(C)C [13a] ({GluureaLys(ε-3-ClBenzyl)-Ahx-Suc}-FYK(X4)[X2]V[Cit][PABC][NMeV]V[Dil][Dolaproine]-X1)
body weight, mass ± error [1, 4]: 22.3 ± 1.3 g
body weight, mass ± error [1, 5]: 22.5 ± 1.4 g
body weight, mass ± error [1, 6]: 22.2 ± 1.4 g
body weight, mass ± error [1, 7]: 22.2 ± 1.4 g
body weight, mass ± error [1, 8]: 22.5 ± 1.3 g
body weight, mass ± error [1, 9]: 22.7 ± 1.3 g
body weight, mass ± error [1, 10]: 22.7 ± 1.3 g
body weight, mass ± error [1, 11]: 24.9 ± 1.2 g
body weight, mass ± error [1, 12]: 24.7 ± 1.5 g
body weight, mass ± error [1, 13]: 24.8 ± 1.4 g
body weight, mass ± error [1, 14]: 25.0 ± 1.4 g
body weight, mass ± error [1, 15]: 25.1 ± 1.3 g
body weight, mass ± error [1, 16]: 25.2 ± 1.2 g
body weight, mass ± error [1, 17]: 25.3 ± 1.2 g
tumor volume V±m [2, 18]: 82.2±5.9 mm3
tumor volume V±m [2, 19]: 127.5 mm3
tumor volume V±m [2, 20]: 292.5 mm3
tumor volume V±m [2, 21]: 463.1 mm3
tumor volume V±m [2, 22]: 958.0 mm3
tumor volume V±m [2, 23]: 1684.0 mm3
Tumor growth inhibition [2, 24]: 36.2%
Tumor growth inhibition [2, 25]: 40.0%
Tumor growth inhibition [2, 26]: 44.9%
Tumor growth inhibition [2, 27]: 29.5%
Tumor growth inhibition [2, 28]: 38.3%
TGI, did not exceed [2]: ≤ 44.9%
tumor volume V±m [3, 18]: 69.6±17.0 mm3
tumor volume V±m [3, 19]: 77.2±9.3 mm3
tumor volume V±m [3, 29]: 81.4±25.8 mm3
tumor volume V±m [3, 20]: 121.7 mm3
tumor volume V±m [3, 22]: 391.6 mm3
tumor volume V±m [3, 23]: 784.0 mm3
Tumor growth inhibition [3, 24]: 62.0%
Tumor growth inhibition [3, 25]: 77.1%
Tumor growth inhibition [3, 26]: 80.4%
Tumor growth inhibition [3, 27]: 80.6%
Tumor growth inhibition [3, 28]: 72.6%

CC[C@H](C)[C@@H]([C@@H](CC(=O)N1CCC[C@H]1[C@H](OC)[C@@H](C)C(=O)N[C@H](C)[C@@H](O)c1ccccc1)OC)N(C)C(=O)[C@@H](NC(=O)[C@@H](NC)C(C)C)C(C)C [MMAE, Monomethyl Auristatin E, reference compound] (H-[NMeV]V[Dil][Dolaproine]-X1)
body weight, mass ± error [1, 4]: 24.0 ± 1.3 g
body weight, mass ± error [1, 5]: 23.7 ± 1.3 g
body weight, mass ± error [1, 6]: 23.4 ± 1.3 g
body weight, mass ± error [1, 7]: 23.5 ± 1.3 g
body weight, mass ± error [1, 8]: 23.8 ± 1.3 g
body weight, mass ± error [1, 9]: 24.0 ± 1.3 g
body weight, mass ± error [1, 10]: 24.2 ± 1.4 g
body weight, mass ± error [1, 11]: 22.4 ± 1.2 g
body weight, mass ± error [1, 12]: 22.7 ± 1.5 g
body weight, mass ± error [1, 13]: 22.4 ± 1.4 g
body weight, mass ± error [1, 14]: 23.0 ± 1.4 g
body weight, mass ± error [1, 15]: 23.1 ± 1.3 g
body weight, mass ± error [1, 16]: 23.2 ± 1.2 g
body weight, mass ± error [1, 17]: 23.3 ± 1.2 g
tumor volume V±m [2, 18]: 85.9±8.7 mm3
tumor volume V±m [2, 19]: 117.9 mm3
tumor volume V±m [2, 29]: 211.3 mm3
tumor volume V±m [2, 20]: 330.9 mm3
tumor volume V±m [2, 21]: 592.6 mm3
tumor volume V±m [2, 22]: 1014.3 mm3
tumor volume V±m [2, 23]: 1679.9 mm3
Tumor growth inhibition [2, 24]: 29.8%
Tumor growth inhibition [2, 25]: 32.1%
Tumor growth inhibition [2, 26]: 29.5%
Tumor growth inhibition [2, 27]: 25.4%
Tumor growth inhibition [2, 28]: 38.4%
TGI, did not exceed [2]: ≤ 38.4%
tumor volume V±m [3, 18]: 73.7±14.3 mm3
tumor volume V±m [3, 19]: 93.6±5.7 mm3
tumor volume V±m [3, 29]: 125.3 mm3
tumor volume V±m [3, 20]: 211.7 mm3
tumor volume V±m [3, 21]: 388.2 mm3
tumor volume V±m [3, 22]: 749.3 mm3
tumor volume V±m [3, 23]: 1402.3 mm3
Tumor growth inhibition [3, 24]: 41.5%
Tumor growth inhibition [3, 25]: 60.1%
Tumor growth inhibition [3, 26]: 64.7%
Tumor growth inhibition [3, 27]: 63.0%
Tumor growth inhibition [3, 28]: 51.0%
